In patent publication US12662513B2, “Peptidic modulators of quorum sensing in Staphylococcus epidermidis” (priority 2016, dated 2026):
“Also recorded” adds a separate entry of the source. Where two headings read alike, the source gives them in different places. Bridge positions count the residues as written; N and C are the ends. Square brackets hold non-standard residues; d marks the D form. Ends that are not written are not given here. Peptide text beside a SMILES is read from it.

Key:
[1] = test system: S. epidermidis Group-I RP62A biofilm; settings: read-out: IC50 of biofilm growth inhibition, 24 h static, CV staining
Description: (§1) Biological reagents, strains, and general methods. All standard reagents were purchased from commercial sources and used according to enclosed instructions. The S. epidermidis fluorescence reporter strains AH3408 (Group-I), AH3567 (Group-II), and AH3409 (Group-III) were cultured in Tryptic Soy Broth (TSB, from Sigma) augmented with 10 μg/mL of erythromycin (36). The S. epidermidis wild-type strain RP62A (Group-I) was cultured in TSB (from Sigma or EMD Millipore). The S. aureus fluorescence reporter strains AH1677 (Group-I), AH430 (Group-II), AH1747 (Group-III), and AH1872 (Group-IV) were cultured in Brain Heart Infusion (BHI, from Teknova) augmented with 10 μg/mL of chloramphenicol (65). All cultures were grown at 37° C. with shaking (200 rpm) unless noted otherwise. Absorbance and fluorescence measurements were obtained using a Biotek Synergy 2 microplate reader operating Gen5 data analysis software. IC50 values and EC50 values were determined from sigmoidal curve fits using GraphPad Prism software (v. 6.0).
Crystal violet biofilm assay protocol. […] Each solution was tested in triplicate.

AgrC-III = settings: for Activity toward Group-III at lower concentration, in words: single concentration 100 nM (or 1 μM)
Excerpt: (§2) However, the biological significance of this agr interference remains unclear, although it has been hypothesized to potentially play a role in competition between different groups in a mixed bacteria milieu (18). […] To this end, the AIP analogs discussed above were screened in GFP reporter strains of Groups-II and -III S. epidermidis to complement the Group-I S. epidermidis data in Tables 1 and 2 (see Methods; FIGS. 7A and 7B).
as §1
(§3) Fluorescence reporter assay protocol. […] Each peptide solution was tested in triplicate. […] Plates were then incubated at 37° C. for 24 h. Fluorescence (EX 500 nm/EM 540 nm) and OD600 of each well was measured using a plate reader, and the fluorescence values were normalized to the DMSO control.
(§4) The remaining steps of the fluorescence assay were the same as above.

AgrC-II = settings: for Activity toward Group-II at lower concentration, in words: single concentration 100 nM (or 1 μM); for Mode/strength of activity toward AgrC-II (Group II), in words: dose response; for potency estimated from few doses: single replicate dose response, Table 3
Excerpt: as §2, §1, §3, §4

AgrC-I receptor [2] = target: T1, AgrC-I receptor (Staphylococcus epidermidis, UniProt Q5HMY3); experiment: cell-based; assay type: cell-based, S. epidermidis; settings: for Mode/strength of activity toward AgrC-I (Group I), in words: dose response; for EC50 in AgrC-I: activation dose response in the presence of 50 nM S. epidermidis AIP-II; for IC50 in AgrC-I: antagonism dose response, peptide alone, Group-I GFP reporter strain, 24 h
Description: The initial set of 14 analogs (listed in Table 1) was synthesized using solid-phase peptide chemistry and purified to homogeneity using previously established HPLC methods (59). Each analog was tested for its ability to modulate the activity of the AgrC-I receptor using a wild-type S. epidermidis Group-I fluorescence reporter strain. This strain contained a reporter plasmid encoding a gfp gene fused to the P3 promoter found upstream of RNAIII (36).
as §1, §3, §4

AgrC-I receptor [3] = target: T1, AgrC-I receptor; assay type: cell-based, S. epidermidis; settings: single replicate dose response, Table 3
[4] = dose response antagonism assay, FIGS. 3A/3B
[5] = read-out: AgrC-II: IC50 (estimated)
[6] = read-out: AgrC-I: IC50 (estimated)
[7] = read-out: AgrC-II: EC50 (estimated)
[8] = read-out: AgrC-I: EC50 (estimated)

T1 sequence (Q5HMY3 entry or part of it): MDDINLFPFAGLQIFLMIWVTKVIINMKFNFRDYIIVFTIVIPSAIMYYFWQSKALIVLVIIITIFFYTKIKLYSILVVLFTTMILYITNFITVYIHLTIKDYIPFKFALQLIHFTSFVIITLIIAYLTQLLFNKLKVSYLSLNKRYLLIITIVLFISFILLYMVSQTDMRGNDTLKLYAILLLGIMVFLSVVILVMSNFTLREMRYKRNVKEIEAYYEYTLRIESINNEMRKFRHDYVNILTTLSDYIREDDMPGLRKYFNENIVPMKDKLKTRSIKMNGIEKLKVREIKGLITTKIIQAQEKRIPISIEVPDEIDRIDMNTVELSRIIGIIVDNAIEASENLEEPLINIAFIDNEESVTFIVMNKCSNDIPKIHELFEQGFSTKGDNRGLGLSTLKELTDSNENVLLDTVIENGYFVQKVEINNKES

Row | Molecule | Mode/strength of activity toward AgrC-I (Group I), in words (AgrC-I receptor [2]) | EC50 in AgrC-I (AgrC-I receptor [2]) | IC50 in AgrC-I (AgrC-I receptor [2]) | further results
1 | CC(C)[C@H](NC(=O)[C@H](CO)NC(=O)[C@H](C)N)C(=O)N[C@H]1CSC(=O)[C@H](Cc2ccccc2)NC(=O)[C@H](Cc2ccc(O)cc2)NC(=O)[C@H](C)NC(=O)[C@H](C)NC1=O [AIP-I D1AS6A, A-S-V-(C-A-A-Y-F)] (H-ASVCAAYF; thioester 4-C) | – | – | – | IC50 [1]: 18 nM
2 | C[C@H](N)C(=O)N[C@@H](CO)C(=O)N[C@@H](C)C(=O)N[C@H]1CSC(=O)[C@H](Cc2ccccc2)NC(=O)[C@H](Cc2ccc(O)cc2)NC(=O)[C@H](C)NC(=O)[C@H](C)NC1=O [AIP-I D1AS6AV3A, A-S-A-(C-A-A-Y-F)] (H-ASACAAYF; thioester 4-C) | – | – | – | IC50 against AgrC-III, in words (AgrC-III; [4]): subnanomolar to low nanomolar range; Activity toward Group-III at lower concentration, in words (AgrC-III): strongly inhibited; IC50 against AgrC-II, in words (AgrC-II; [4]): subnanomolar to low nanomolar range; Activity toward Group-II at lower concentration, in words (AgrC-II): strongly inhibited
3 | CC(C)[C@H](NC(=O)[C@H](CO)NC(=O)[C@@H](N)CC(=O)O)C(=O)N[C@H]1CSC(=O)[C@@H](Cc2ccccc2)NC(=O)[C@H](Cc2ccc(O)cc2)NC(=O)[C@H](CO)NC(=O)[C@H](C)NC1=O [AIP-I D-F8, D-S-V-(C-A-S-Y-DF)] (H-DSVCASY[dF]; thioester 4-C) | maintained agonistic activity | – | – | –
4 | CC(C)[C@@H](NC(=O)[C@H](CO)NC(=O)[C@@H](N)CC(=O)O)C(=O)N[C@H]1CSC(=O)[C@H](Cc2ccccc2)NC(=O)[C@H](Cc2ccc(O)cc2)NC(=O)[C@H](CO)NC(=O)[C@H](C)NC1=O [AIP-I D-V3, D-S-DV-(C-A-S-Y-F)] (H-DS[dV]CASYF; thioester 4-C) | – | – | – | Activity toward Group-I at lower concentration, in words (AgrC-I receptor [2]; single concentration 100 nM (or 1 μM)): lost its inhibitory activity; Activity toward Group-III at lower concentration, in words (AgrC-III): remained an antagonist; Activity toward Group-II at lower concentration, in words (AgrC-II): remained an antagonist
5 | CC(C)C[C@@H]1NC(=O)[C@H](Cc2ccc(O)cc2)NC(=O)[C@H](CC(N)=O)NC(=O)[C@H](CO)NC(=O)[C@@H](NC(=O)[C@@H]2CCCN2C(=O)[C@@H](N)CC(N)=O)CSC1=O [AIP-II 7aa, N-P-(C-S-N-Y-L)] (H-NPCSNYL; thioester 3-C) | dramatic reduction in inhibitory activity | – | – | –
6 | CC(C)C[C@@H]1NC(=O)[C@H](Cc2ccc(O)cc2)NC(=O)[C@H](CC(N)=O)NC(=O)[C@H](CO)NC(=O)[C@@H](NC(=O)[C@@H]2CCCN2C(=O)[C@H](CC(N)=O)NC(=O)[C@H](Cc2ccc(O)cc2)NC(=O)[C@H](CCCCN)NC(=O)[C@H](CO)NC(=O)[C@H](C)NC(=O)[C@@H](N)CC(N)=O)CSC1=O [AIP-II, N-A-S-K-Y-N-P-(C-S-N-Y-L), reference compound] (H-NASKYNPCSNYL; thioester 8-C) | inhibit | – | – | –
7 | CC(C)C[C@@H]1NC(=O)[C@H](Cc2ccc(O)cc2)NC(=O)[C@H](CO)NC(=O)[C@H](C)NC(=O)[C@@H](NC(=O)[C@@H]2CCCN2C(=O)[C@H](CC(N)=O)NC(=O)[C@H](Cc2ccc(O)cc2)NC(=O)[C@H](CCCCN)NC(=O)[C@H](C)NC(=O)[C@H](C)NC(=O)[C@@H](N)CC(N)=O)CSC1=O [AIP-III, N-A-A-K-Y-N-P-(C-A-S-Y-L), reference compound] (H-NAAKYNPCASYL; thioester 8-C) | inhibit | – | – | –
8 | CC(C)C[C@@H]1NC(=O)[C@H](CO)NC(=O)[C@H](CO)NC(=O)[C@@H](NC(=O)[C@H](C)NC(=O)[C@H](CC(N)=O)NC(=O)[C@@H](NC(=O)CN)C(C)C)CSC(=O)[C@H](Cc2ccccc2)NC1=O [S. aureus AIP-II, G-V-N-A-(C-S-S-L-F), reference compound] (H-GVNACSSLF; thioester 5-C) | relatively strong AgrC-I antagonist | – | – | –
9 | CC(=O)N[C@H]1CSC(=O)[C@H](Cc2ccccc2)NC(=O)[C@H](Cc2ccc(O)cc2)NC(=O)[C@H](CO)NC(=O)[C@H](C)NC1=O [tAIP-I, Ac-(C-A-S-Y-F)] (Ac-CASYF; thioester 1-C) | weak inhibitory activity | – | – | –
10 | CC(=O)N[C@H]1CSC(=O)[C@H](CC(C)C)NC(=O)[C@H](Cc2ccc(O)cc2)NC(=O)[C@H](CC(N)=O)NC(=O)[C@H](CO)NC1=O [tAIP-II, Ac-(C-S-N-Y-L)] (Ac-CSNYL; thioester 1-C) | dramatic reduction in inhibitory activity | – | – | Activity against Group-III, in words (AgrC-III; single concentration 10 μM): inactive
11 | D-S-V-(C-A-S-A-F) (DSVCASAF; bridge 4-C; also: thiolactone between Cys4 side chain and C-terminus) [AIP-I Y7A] | – | Inactive^c | Inactive^c | Activity against Group-I, in words (AgrC-I receptor [2]; single concentration 10 μM): inactive
12 | D-S-V-(C-A-S-DY-F) (DSVCAS[dY]F; bridge 4-C; also: thiolactone between Cys4 side chain and C-terminus) [AIP-I D-Y7] | complete loss of activity | Inactive^c | Inactive^c | –
13 | D-S-V-(C-A-S-Y-A) (DSVCASYA; bridge 4-C; also: thiolactone between Cys4 side chain and C-terminus) [AIP-I F8A] | – | Inactive^c | Inactive^c | –
14 | D-S-V-(C-DA-S-Y-F) (DSVC[dA]SYF; bridge 4-C; also: thiolactone between Cys4 side chain and C-terminus) [AIP-I D-A5] | – | Inactive^c | Inactive^c | –
15 | D-S-V-(DC-A-S-Y-F) (DSV[dC]ASYF; bridge 4-C; also: thiolactone between Cys4 side chain and C-terminus) [AIP-I D-C4] | – | Inactive^c | Inactive^c | –
16 | I-N-(C-D-F-L-L) [S. aureus AIP-III, reference compound] | – | Inactive^c | Inactive^c | –
17 | KYLPCSNYL [AIP-II 9aa N3L, K-Y-L-P-C-S-N-Y-L] | antagonist | – | – | Mode/strength of activity toward AgrC-II (Group II), in words (AgrC-II): antagonist; potency estimated from few doses (AgrC-II; [5]): 70.7 nM; potency estimated from few doses (AgrC-I receptor [3]; [6]): 9.4 nM
18 | KYNVCANYL [AIP-II 9aa P4V S6A, K-Y-N-V-C-A-N-Y-L] | inactive | – | – | potency estimated from few doses (AgrC-II; [7]): > 7000 nM
19 | KYNVCSAYL [AIP-II 9aa P4V N7A, K-Y-N-V-C-S-A-Y-L] | activating; also recorded: agonist | – | – | potency estimated from few doses (AgrC-II; [7]): > 600 nM; potency estimated from few doses (AgrC-I receptor [3]; [8]): > 1200 nM
20 | KYNVCSNYL [AIP-II 9aa P4V, K-Y-N-V-C-S-N-Y-L] | antagonist | – | – | potency estimated from few doses (AgrC-II; [7]): 114 nM; potency estimated from few doses (AgrC-I receptor [3]; [6]): 45 nM
21 | KYNVCSSYL [AIP-II 9aa P4V N7S, K-Y-N-V-C-S-S-Y-L] | switched; also recorded: antagonist | – | – | potency estimated from few doses (AgrC-II; [5]): 6.5 nM; potency estimated from few doses (AgrC-I receptor [3]; [8]): > 1800 nM
22 | KYVPCSNYL [AIP-II 9aa N3V, K-Y-V-P-C-S-N-Y-L] | antagonist | – | – | Mode/strength of activity toward AgrC-II (Group II), in words (AgrC-II): antagonist; potency estimated from few doses (AgrC-II; [5]): 108 nM; potency estimated from few doses (AgrC-I receptor [3]; [6]): 4.1 nM
23 | Y-S-T-(C-D-F-I-M) (YSTCDFIM; bridge 4-C) [S. aureus AIP-I, reference compound] | – | Inactive^c | Inactive^c | –
